Literature values in patent US20230071314A1, “POLYMERIC COMPOSITIONS FOR SUSTAINED DELIVERY OF VMAT2 INHIBITORS” (Foresee Pharmaceuticals Co., Ltd., priority 2021, published 2023).
Where two headings read alike, the source gives them in different places.

Experiments:
dopamine D2 = dopamine D2 (Homo sapiens, UniProt P14416); conditions: Harriott et al. 2018; read-out: off-target binding affinity to dopamine D2
[1] = target: serotonin 5-HT7 receptors (Homo sapiens, UniProt P34969); conditions: Harriott et al. 2018; read-out: off-target binding affinity to serotonin 5-HT7 receptors
Sequence of serotonin 5-HT7 receptors (P34969 whole entry): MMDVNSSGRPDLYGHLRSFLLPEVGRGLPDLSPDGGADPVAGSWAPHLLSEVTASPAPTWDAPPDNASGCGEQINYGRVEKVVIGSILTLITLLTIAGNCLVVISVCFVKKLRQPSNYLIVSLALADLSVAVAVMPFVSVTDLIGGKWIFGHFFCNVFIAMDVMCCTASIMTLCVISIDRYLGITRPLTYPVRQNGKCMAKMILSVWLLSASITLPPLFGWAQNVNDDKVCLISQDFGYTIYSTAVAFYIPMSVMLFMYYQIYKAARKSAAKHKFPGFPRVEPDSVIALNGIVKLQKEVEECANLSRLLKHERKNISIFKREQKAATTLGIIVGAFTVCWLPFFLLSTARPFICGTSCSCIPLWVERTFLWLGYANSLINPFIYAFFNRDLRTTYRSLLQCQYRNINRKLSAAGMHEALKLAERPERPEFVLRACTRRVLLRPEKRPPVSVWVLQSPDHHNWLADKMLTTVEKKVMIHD

Sequence of dopamine D2 (P14416 1-414 isoform P14416-2): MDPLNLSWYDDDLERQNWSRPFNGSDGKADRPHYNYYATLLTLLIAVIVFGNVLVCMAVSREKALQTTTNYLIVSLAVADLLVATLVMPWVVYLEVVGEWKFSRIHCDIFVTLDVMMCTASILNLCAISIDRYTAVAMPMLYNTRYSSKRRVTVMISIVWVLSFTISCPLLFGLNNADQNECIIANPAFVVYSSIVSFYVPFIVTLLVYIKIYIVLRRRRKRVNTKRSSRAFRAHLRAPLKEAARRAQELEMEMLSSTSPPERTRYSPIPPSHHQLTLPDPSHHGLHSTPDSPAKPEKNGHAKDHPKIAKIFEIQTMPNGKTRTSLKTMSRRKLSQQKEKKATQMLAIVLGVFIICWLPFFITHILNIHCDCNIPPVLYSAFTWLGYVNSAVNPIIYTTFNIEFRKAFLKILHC

Compound	Ki (dopamine D2) [nM]	Ki [1] [nM]	increase of cumulative release (Ivermectin loading increased from 1% to 2%)	increase of cumulative release (Ivermectin loading increased from 1% to 4%)
COc1cc2c(cc1OC)C1CC(O)C(CC(C)C)CN1CC2 [S,S,S-DHTBZ ((−)-α), [−]-α-dihydrotetrabenazine]	180	71		
COc1cc2c(cc1OC)C1CC(O)C(CC(C)C)CN1CC2 [R,S,S-DHTBZ ((−)-β), [−]-β-dihydrotetrabenazine]	53	5.9		
Ivermectin			2.4-2.9 times	3.1-3.7 times
